{"source": "paper PMC8646019", "about": "“Azvudine is a thymus-homing anti-SARS-CoV-2 drug effective in treating COVID-19 patients” (Signal Transduction and Targeted Therapy, 2021)", "key": {"[1]": {"experiment": "Biodistribution and metabolism of FNC in rats (UHPLC-MS/MS)", "conditions": "male, Sprague-Dawley, in vivo, rat, FNC 5 mg/kg oral, average n=5, read-out: Concentration in kidney", "description": "Fig. 2 Thymus-homing distribution and metabolism of FNC after oral administration in rats. Twenty-five male Sprague–Dawley rats were orally administered with FNC at a single dose of 5 mg/kg. At the time point of 1, 2, 6, 12, and 24 h after drug administration, 5 rats were dissected. The blood, as well as the heart, liver, spleen, lung, kidney, brain, thymus, testis, and epididymis, were collected. Peripheral blood mononuclear cells (PBMCs) were isolated from blood using Histopaque-1083. The distribution of FNC in plasma, PBMCs, and the different tissues was evaluated through UHPLC–MS/MS analysis performed on an UHPLC system (1290 series, Agilent Technologies, USA) coupled to a triple quadrupole mass spectrometer (Agilent 6470 QQQ). a Metabolic pathway of FNC. b FNC distribution in tissues and plasma (5 mg/kg, oral). c FNC-TP levels in the blood (5 mg/kg, oral). d FNC-TP levels in tissues (5 mg/kg, oral). e FNC and its phosphate metabolites (FNC-MP, FNC-DP, and FNC-TP) in the thymus (5 mg/kg). f FNC and its phosphate metabolites in PBMCs (5 mg/kg).\n25 male Sprague-Dawley rats (200 ± 15 g) were purchased from Vital River Laboratories Co., LTD (Beijng, China). The animals were housed under specific pathogen-free conditions (12 h light/12 h dark photoperiod, 25 ± 2°C, 50±5% relative humidity). All rats were allowed to acclimate for 1 week before experiments. Research was conducted in accordance with all institutional guidelines and ethics and approved by the Laboratories Institutional Animal Care and Use Committee of the Chinese Academy of Medical Sciences and Peking Union Medical College.\nRats were divided randomly into five groups with five rats in each, and were administered with azvudine at a single dose of 5 mg/kg. At the time point of 1h, 2h, 6h, 12h and 24h after drug administration, rats in one group were dissected with euthanization and blood samples were collected using heparin as an anticoagulant. 0.5 ml of blood was transferred to another 1.5ml eppendorf tube to obtain plasma by centrifugation (3500 r/min ×15 min). The tissues, including heart, liver, spleen, lung, kidney, brain, thymus, testis, and epididymis, were collected, and washed with cold 0.9% normal saline, and then kept at -80°C until analysis.\nPeripheral blood mononuclear cells (PBMCs) were isolated from blood using Histopaque-1083 according to the manufacturer’s protocol. Firstly, 2 mL of blood collected in heparin sodium tube was diluted with 2 mL of PBS solution. Then, 4mL of diluted blood was layered on top of 4 mL Histopaque-1083 and centrifuged for 30 min at 2000 r/min. PBMCs were then aspirated, washed twice with PBS solution, suspended in PBS, and counted with a hemocytometer. Furtherly, PBMCs were centrifuged (2000 r/min ×10 min), lysed with 1ml of cold 80% methanol for 12h, then ultrasonic for cell disruption (3min). Finally, the cell lysates were stored in -80°C until sample preparation.\nTissue samples were weighed and 2-fold volume of 0.9% saline containing phosphatase inhibitor was added to prepare the homogenate on the ice. Then tissue homogenate was ultrasonic extracted for 5 min in the ice bath. 200μL of plasma or tissue homogenate was transferred into a 1.5 ml eppendorf tube and added 600 μL of methanol solution with internal standards. The sample was vortexed for 5 min and kept at 4°C for 15min, then centrifuged at 13000r/min for 10 min (4°C). […]"}, "PBMC": {"system": "PBMC", "assay_type": "in vivo, rhesus macaques", "conditions": "n = 4 for each group, with time, vs untreated"}, "viral replication": {"system": "viral replication", "conditions": "FNC compound itself, not phosphorylated; cited from earlier work"}, "SARS-CoV-2": {"system": "SARS-CoV-2", "experiment": "Clinical trial of FNC on compassionate use in COVID-19 patients"}, "[2]": {"conditions": "drug combination no: FNC only, N = 15"}, "[3]": {"conditions": "drug combination no: FNC only, N = 15, mean ± SD"}, "[4]": {"conditions": "drug combination yes: FNC plus TCM or/and other antivirals, N = 16, mean ± SD"}, "[5]": {"conditions": "individual COVID-19 patient (one per table line)"}, "[6]": {"conditions": "moderate COVID-19, n = 26, mean ± SD"}, "[7]": {"conditions": "severe COVID-19, n = 5, mean ± SD"}}, "note": "Several values for one entry are separate records, joined by “and”; a condition that tells them apart may be missing. Equal entries are not always repeated. Entries after “also recorded” stand apart in the source; their conditions may differ.", "data": [{"smiles": "[N-]=[N+]=N[C@]1(CO)O[C@@H](n2ccc(N)nc2=O)[C@@H](F)[C@@H]1O", "note": "[FNC, 2′-deoxy-2′-β-fluoro-4′-azidocytidine]", "values": [{"measurement": "concentration at 1 h", "setting": "[1]; 1 h", "result": 515, "unit": "ng/g"}, {"measurement": "concentration at 2 h", "setting": "[1]; 2 h", "result": 798, "unit": "ng/g"}, {"measurement": "concentration at 6 h", "setting": "[1]; 6 h", "result": 269, "unit": "ng/g"}, {"measurement": "concentration at 12 h", "setting": "[1]; 12 h", "result": 76.5, "unit": "ng/g"}, {"measurement": "concentration at 24 h", "setting": "[1]; 24 h", "result": 78.1, "unit": "ng/g"}, {"measurement": "percentage of CD3+, CD4+, and CD8+ cells in the peripheral blood", "setting": "PBMC", "result": "increased"}, {"measurement": "inhibiting viral replication in vitro", "setting": "viral replication", "result": "almost inactive"}, {"measurement": "Recovery rate", "setting": "SARS-CoV-2; all 31 COVID-19 patients", "result": "100% (31/31)"}, {"measurement": "Time from FNC treatment to SARS-CoV-2 negative conversion, median", "setting": "SARS-CoV-2; all 31 COVID-19 patients", "result": 3.0, "unit": "days"}, {"measurement": "Time from FNC treatment to SARS-CoV-2 negative conversion, range", "setting": "SARS-CoV-2; all 31 COVID-19 patients", "result": "1 to 9", "unit": "days"}, {"measurement": "Time from FNC treatment to discharge from the hospital, average", "setting": "SARS-CoV-2; all 31 COVID-19 patients", "result": "9.00 ± 4.93 days and 9.00 days"}, {"measurement": "Time from FNC treatment to discharge from the hospital, median", "setting": "SARS-CoV-2; all 31 COVID-19 patients", "result": 9.0, "unit": "days"}, {"measurement": "Time from FNC treatment to discharge from the hospital, range", "setting": "SARS-CoV-2; all 31 COVID-19 patients", "result": "2 to 25", "unit": "days"}, {"measurement": "deaths in the trial", "setting": "SARS-CoV-2; all 31 COVID-19 patients", "result": "No patients died"}, {"measurement": "hospital discharge rate", "setting": "SARS-CoV-2; all 31 COVID-19 patients", "result": 100, "unit": "%"}, {"measurement": "viral ribonucleic acid negative conversion, share of patients", "setting": "SARS-CoV-2; all 31 COVID-19 patients", "result": 100, "unit": "%"}, {"measurement": "Time from FNC treatment to SARS-CoV-2 negative conversion, average", "setting": "SARS-CoV-2; all 31 COVID-19 patients, oral FNC 5 mg qd", "result": "3.29 ± 2.22 days and 3.29 days"}, {"measurement": "Recovery rate", "setting": "SARS-CoV-2; [2]", "result": "100% (16/16)"}, {"measurement": "Side effect", "setting": "SARS-CoV-2; [2]", "result": "13.3% (2/15)"}, {"measurement": "Time from FNC treatment to SARS-CoV-2 negative conversion", "setting": "SARS-CoV-2; [3]", "result": "2.13 ± 1.30", "unit": "days"}, {"measurement": "Time from FNC treatment to discharge from the hospital", "setting": "SARS-CoV-2; [3]", "result": "8.67 ± 6.24", "unit": "days"}, {"measurement": "Recovery rate", "setting": "SARS-CoV-2; drug combination yes, N = 16", "result": "100% (16/16)"}, {"measurement": "Side effect", "setting": "SARS-CoV-2; drug combination yes, N = 16", "result": "18.8% (3/16)"}, {"measurement": "Time from FNC treatment to SARS-CoV-2 negative conversion", "setting": "SARS-CoV-2; [4]", "result": "4.38 ± 2.39", "unit": "days"}, {"measurement": "Time from FNC treatment to discharge from the hospital", "setting": "SARS-CoV-2; [4]", "result": "9.31 ± 3.46", "unit": "days"}, {"measurement": "Side effect", "setting": "SARS-CoV-2; [5]", "result": "Dizziness (fist day); also recorded: Low counts of Platelet and Fibrinogen (first day); also recorded: Dizziness, Nausea, Vomit (first day); also recorded: Dizziness, Insomnia, Vomit (first day)"}, {"measurement": "Time from FNC treatment to discharge from the hospital", "setting": "SARS-CoV-2; [5]", "result": "6 days and 7 days and 5 days"}, {"measurement": "Time from FNC treatment to SARS-CoV-2 negative conversion", "setting": "SARS-CoV-2; individual COVID-19 patient (one per table line; dosage and combination treatment as in the line)", "result": 6, "unit": "days"}, {"measurement": "Recovery rate", "setting": "SARS-CoV-2; moderate COVID-19, n = 26", "result": "100% (26/26)"}, {"measurement": "Time from FNC treatment to SARS-CoV-2 negative conversion", "setting": "SARS-CoV-2; [6]", "result": "3.35 ± 2.13", "unit": "days"}, {"measurement": "Time from FNC treatment to discharge from the hospital", "setting": "SARS-CoV-2; [6]", "result": "9.65 ± 4.91", "unit": "days"}, {"measurement": "Recovery rate", "setting": "SARS-CoV-2; self-controlled comparison, 11 patients", "result": "100% (11/11)"}, {"measurement": "Time from drug treatment to SARS-CoV-2 negative conversion", "setting": "SARS-CoV-2; self-controlled comparison, 11 patients first treated with known antivirals, then FNC alone, mean ± SD", "result": "1.73 ± 0.79", "unit": "days"}, {"measurement": "Time from FNC treatment to discharge from the hospital", "setting": "SARS-CoV-2; self-controlled comparison, 11 patients, mean ± SD", "result": "9.09 ± 7.27", "unit": "days"}, {"measurement": "Recovery rate", "setting": "SARS-CoV-2; severe COVID-19, n = 5", "result": "100% (5/5)"}, {"measurement": "Side effect", "setting": "SARS-CoV-2; severe COVID-19, n = 5", "result": "40% (2/5)"}, {"measurement": "Time from FNC treatment to SARS-CoV-2 negative conversion", "setting": "SARS-CoV-2; [7]", "result": "3.00 ± 2.92", "unit": "days"}, {"measurement": "Time from FNC treatment to discharge from the hospital", "setting": "SARS-CoV-2; [7]", "result": "5.60 ± 3.78", "unit": "days"}]}]}
